According to patent US8242275B2, “Bicyclic pyrazole compounds as antibacterial agents” (Janssen Pharmaceutica NV, priority 2005, dated 2012):
In brackets after ≈: the same amount, converted by molar mass.

Experiments:
[1] = tested on: E. coli KL-16 (GSC strain 4245); assay: In vitro antibacterial activity (MIC assay), broth microdilution; type: cell-based; conditions: Escherichia coli
Summary of the method: (§1)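 Broth microdilution per NCCLS M7-A5: 11-point 2-fold compound dilutions from DMSO stocks, inoculum about 5×10^5 CFU/mL, incubation 35° C for 16–24 h. MIC scored visually against no-compound growth controls, in μg/mL.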

[2] = tested on: S. aureus ATCC13709; assay: as above; type: cell-based; conditions: Staphylococcus aureus, ATCC13709; read-out: S. aureus ATCC13709 MIC
Summary of the method: as §1

[3] = tested on: S. pneumoniae ATCC49619; assay: as above; type: cell-based; conditions: Streptococcus pneumoniae, ATCC49619; read-out: S. pneumoniae ATCC49619 MIC
Summary of the method: as §1

[4] = target: T1, E. coli DNA gyrase (Escherichia coli, UniProt P0AES4+P0AES6); assay: DNA gyrase inhibition assay (supercoiling); type: biochemical; conditions: E. coli DNA gyrase supercoiling, visual inspection of gels; read-out: DNA Gyrase IC50 (converted)
T1 construct: purchased John Innes Enterprises Ltd. (John Innes Centre, UK)
T1 sequence (P0AES4 whole entry, one chain of several): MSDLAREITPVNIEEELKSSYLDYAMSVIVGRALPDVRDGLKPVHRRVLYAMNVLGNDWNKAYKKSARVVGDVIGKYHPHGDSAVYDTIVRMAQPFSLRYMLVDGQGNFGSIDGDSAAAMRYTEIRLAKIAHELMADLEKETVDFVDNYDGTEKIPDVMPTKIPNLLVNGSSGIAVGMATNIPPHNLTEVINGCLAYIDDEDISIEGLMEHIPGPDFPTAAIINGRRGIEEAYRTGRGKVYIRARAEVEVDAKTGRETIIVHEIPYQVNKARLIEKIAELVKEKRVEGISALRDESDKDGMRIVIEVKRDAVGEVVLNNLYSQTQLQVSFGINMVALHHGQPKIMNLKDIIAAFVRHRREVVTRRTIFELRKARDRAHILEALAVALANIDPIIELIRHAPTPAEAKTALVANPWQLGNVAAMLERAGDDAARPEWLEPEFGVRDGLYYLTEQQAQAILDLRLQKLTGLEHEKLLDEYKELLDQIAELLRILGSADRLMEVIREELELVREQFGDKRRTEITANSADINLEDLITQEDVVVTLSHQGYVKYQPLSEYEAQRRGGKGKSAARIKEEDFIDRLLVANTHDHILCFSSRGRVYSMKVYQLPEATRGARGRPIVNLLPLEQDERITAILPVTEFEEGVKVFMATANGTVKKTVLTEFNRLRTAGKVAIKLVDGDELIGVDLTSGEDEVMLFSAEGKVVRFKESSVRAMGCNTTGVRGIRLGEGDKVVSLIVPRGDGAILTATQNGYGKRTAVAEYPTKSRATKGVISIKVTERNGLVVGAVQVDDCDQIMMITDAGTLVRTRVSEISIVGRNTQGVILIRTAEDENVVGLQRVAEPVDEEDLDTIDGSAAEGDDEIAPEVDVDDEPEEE
Description: Inhibition of the supercoiling activity of E. coli DNA gyrase was determined using enzymes, buffers and substrates received from John Innes Enterprises Ltd. (John Innes Centre, UK). The reactions were performed according to the manufacturer's directions, with the following modifications.
DNA supercoiling reactions were carried out in a total reaction volume of 20 μL containing 250 ng of relaxed pBR322, 35 mM Tris-HCl (pH 7.5), 24 mM KCl, 4 mM MgCl2, 2 mM dithiothreitol, 1.8 mM spermidine, 1 mM ATP, 6.5% glycerol and 100 μg/mL albumin. Compounds diluted in 10% DMSO were added to the reaction mixture to reach a final concentration of 0.5% DMSO. Enzyme was diluted to […] in a solution of 50 mM Tris-HCl (pH 7.5), 100 mM KCl, 2 mM dithiothreitol, 1 mM EDTA, and 50% glycerol. Diluted enzyme (0.2 unit) was added to each reaction.
The reactions were incubated at 37° C. for 30 min. The reactions were then cooled to 0° C., followed by addition of 3 μL of 40% glycerol, 100 mM Tris-HCl (pH 7.5), 50 mM EDTA, 0.5% SDS and 0.1% bromophenol blue. Samples were separated on 1.0% agarose gels. Gels were stained with Ethidium bromide and photographed with a Stratagene Eagle Eye II.

Compound	MIC [1] [mg/L]	MIC [2] [mg/L]	MIC [3] [mg/L]	IC50 [4] [µM]
COc1ccc2nccc(-n3cc4c(n3)CCN(C(=O)c3ccc5c(c3)NC(=O)CS5)CC4)c2n1 [Example 15, 6-[2-(6-Methoxy-[1,5]naphthyridin-4-yl)-4,5,7,8-tetrahydro-2H-1,2,6-triaza-azulene-6-carbonyl]-4H-benzo[1,4]thiazin-3-one]	> 128	1 (≈ 2.06 µM)	16 (≈ 32.9 µM)	> 65.8
COc1ccc2nccc(-n3cc4c(n3)CCC(NCC(=O)Nc3cc(F)cc(F)c3)C4)c2c1 (centres unmarked) [Example 61, N-(3,5-Difluoro-phenyl)-2-[2-(6-methoxy-quinolin-4-yl)-4,5,6,7-tetrahydro-2H-indazol-5-ylamino]-acetamide]	16 (≈ 34.5 µM)	0.5 (≈ 1.08 µM)	8 (≈ 17.3 µM)	4.32
COc1ccc2nccc(-n3cc4c(n3)CCC(NCC(=O)Nc3ccc(C)cc3)C4)c2n1 (centres unmarked) [Example 60, 2-[2-(6-Methoxy-[1,5]naphthyridin-4-yl)-4,5,6,7-tetrahydro-2H-indazol-5-ylamino]-N-p-tolyl-acetamide]	> 128	1 (≈ 2.26 µM)	8 (≈ 18.1 µM)	> 36.2
O=C1CSc2ccc(C(=O)NC3CCc4c(cnn4-c4cc(C(F)(F)F)nc5ccccc45)C3)cc2N1 (centres unmarked) [Example 97, 3-Oxo-3,4-dihydro-2H-benzo[1,4]thiazine-6-carboxylic acid [1-(2-trifluoromethyl-quinolin-4-yl)-4,5,6,7-tetrahydro-1H-indazol-5-yl]-amide]	> 128	> 128	> 128	> 30.6
COc1ccc2nccc(-n3cc4c(n3)CCC(NCc3cc5c(cc3F)OCCO5)C4)c2n1 (centres unmarked) [Example 43, (7-Fluoro-2,3-dihydro-benzo[1,4]dioxin-6-ylmethyl)-[2-(6-methoxy-[1,5]naphthyridin-4-yl)-4,5,6,7-tetrahydro-2H-indazol-5-yl]-amine]	16 (≈ 34.7 µM)	> 0.125	1 (≈ 2.17 µM)	1.08
COc1ccc2nccc(-n3cc4c(n3)CCC(N(Cc3ccccc3)Cc3ccc5c(c3)NC(=O)CS5)C4)c2n1 (centres unmarked) [Example 66, 6-({Benzyl-[2-(6-methoxy-[1,5]naphthyridin-4-yl)-4,5,6,7-tetrahydro-2H-indazol-5-yl]amino}-methyl)-4H-benzo[1,4]thiazin-3-one]	> 128	8 (≈ 14.2 µM)	> 128	3.55
COc1ccc2nccc(-n3cc4c(n3)CCC(NC(=O)/C=C/c3cccc(Cl)c3)C4)c2n1 (centres unmarked) [Example 12, 3-(3-Chloro-phenyl)-N-[2-(6-methoxy-[1,5]naphthyridin-4-yl)-4,5,6,7-tetrahydro-2H-indazol-5-yl]-acrylamide]	> 128	0.25 (≈ 0.544 µM)	8 (≈ 17.4 µM)	4.35
COc1ccc2nccc(-n3cc4c(n3)CCC(NC(=O)c3ccc5c(c3)N(C)C(=O)CS5)C4)c2n1 (centres unmarked) [Example 69, 4-Methyl-3-oxo-3,4-dihydro-2H-benzo[1,4]thiazine-6-carboxylic acid [2-(6-methoxy-[1,5]naphthyridin-4-yl)-4,5,6,7-tetrahydro-2H-indazol-5-yl]-amide]	> 128	4 (≈ 7.99 µM)	64 (≈ 128 µM)	> 7.99
COc1ccc2nccc(-n3cc4c(n3)CCC(NC(=O)c3ccc(C)c([N+](=O)[O-])c3)C4)c2c1 (centres unmarked) [Example 111, N-[2-(6-Methoxy-quinolin-4-yl)-4,5,6,7-tetrahydro-2H-indazol-5-yl]-4-methyl-3-nitro-benzamide]	> 128	0.25 (≈ 0.546 µM)	4 (≈ 8.74 µM)	> 35
COc1ccc2nccc(-n3cc4c(n3)CCC(NC(=O)c3cccnc3Cl)C4)c2c1 (centres unmarked) [Example 78, 2-Chloro-N-[2-(6-methoxy-quinolin-4-yl)-4,5,6,7-tetrahydro-2H-indazol-5-yl]-nicotinamide]	> 128	16 (≈ 36.9 µM)	> 128	> 36.9
COc1ccc2nccc(-n3cc4c(n3)CCC(NC(=O)c3cc5c(cc3C(F)(F)F)SCC(=O)N5)C4)c2n1 (centres unmarked) [Example 112, 3-Oxo-7-trifluoromethyl-3,4-dihydro-2H-benzo[1,4]thiazine-6-carboxylic acid [2-(6-methoxy-[1,5]naphthyridin-4-yl)-4,5,6,7-tetrahydro-2H-indazol-5-yl]-amide]	4 (≈ 7.21 µM)	0.125 (≈ 0.225 µM)	8 (≈ 14.4 µM)	0.451
